The text below walks through data of patent US20120245229A1, “METHOD FOR TREATING NEUROPATHIC PAIN” (priority 2009, published 2012).

The experiment concerns CFA-induced mechanical allodynia. Kind of experiment: CFA-induced mechanical allodynia (von Frey paw withdrawal threshold). Format: in vivo, mice. The following applies: intrathecal RvE1 3-100 ng, 3 d after CFA injection. As to the method: Animals and pain models. Adult CD1 mice (male, 25-32 g) were used for most experiments. Knockout mice were used lacking TNFR1/II (Tnfrsf1a/1b^−/−) and TRPV1 (Trpv1^−/−) and C57BL/6 wild-type control mice, all from Jackson, for some experiments. All animal procedures performed in this study were approved by the Harvard Medical Area Standing Committee on Animals. 20 μl of diluted formalin (5%), carrageenan (CRG, 1%), or complete Freund's adjuvant (CFA) were injected into the plantar surface of a hindpaw to produce acute, persistent, or chronic inflammatory pain, respectively. Postoperative pain was also produced through hindpaw incision^36 and neuropathic pain by ligation of the spinal nerve^37.
Behavioral analysis. Mice were habituated in the testing environment for two days and performed behavioral testing in a blinded manner. Formalin-evoked spontaneous inflammatory pain was assessed by measuring duration (seconds) animals spent on licking/flinching the affected paws every 5 min for 45 min. Capsaicin-induced spontaneous pain was aslo assessed for 10 min. […] It was determined the 50% paw withdrawal threshold using Dixon's up-down method^40. […] The percent maximal possible antinociceptive effect (% M.P.E) was calculated using the equation % M.P.E.=[(PL−BL2)/(BL1−BL2)]×100. […]

As to `CC[C@@H](O)/C=C/C=C\C[C@@H](O)/C=C/C=C/C=C\[C@@H](O)CCCC(=O)O` [RvE1, 5S,12R,18R-trihydroxyeicosapentaenoic acid], the CFA-induced mechanical allodynia entry was “reduces CFA-induced mechanical allodynia in a dose-dependent manner”.
